PubChem BioAssay (NCI)
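Five compound concentrations were applied to cells in 96-well plates for 48 hours; endpoints were derived by simple linear interpolation of the resulting dose-response curve. Abbreviation: GI50, concentration required for 50% inhibition of growth. TGI: concentration producing complete growth inhibition.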

Assays:
Assay in all cases: growth of human tumour cells (NCI), 48 h
786-0 renal = system: 786-0 renal
A498 renal = system: A498 renal
A549 NSCLC = system: A549 NSCLC
ACHN renal = system: ACHN renal
BT-549 breast = system: BT-549 breast
CAKI-1 renal = system: CAKI-1 renal
COLO 205 colon = system: COLO 205 colon
DU-145 prostate = system: DU-145 prostate
EKVX NSCLC = system: EKVX NSCLC
HCC-2998 colon = system: HCC-2998 colon
HCT-116 colon = system: HCT-116 colon
HCT-15 colon = system: HCT-15 colon
HL-60(TB) leukemia = system: HL-60(TB) leukemia
HOP-62 NSCLC = system: HOP-62 NSCLC
HOP-92 NSCLC = system: HOP-92 NSCLC
HS 578T breast = system: HS 578T breast
HT29 colon = system: HT29 colon
IGROV1 ovarian = system: IGROV1 ovarian
K-562 leukemia = system: K-562 leukemia
KM12 colon = system: KM12 colon
LOX IMVI melanoma = system: LOX IMVI melanoma
M14 melanoma = system: M14 melanoma
MALME-3M melanoma = system: MALME-3M melanoma
MCF7 breast = system: MCF7 breast
MDA-MB-231 breast = system: MDA-MB-231 breast
MDA-MB-435 = system: MDA-MB-435
MDA-MB-468 breast = system: MDA-MB-468 breast
MOLT-4 leukemia = system: MOLT-4 leukemia
NCI-H226 lung = system: NCI-H226 lung
NCI-H23 lung = system: NCI-H23 lung
NCI-H460 lung = system: NCI-H460 lung
NCI-H522 lung = system: NCI-H522 lung
NCI/ADR-RES ovarian = system: NCI/ADR-RES ovarian
OVCAR-3 ovarian = system: OVCAR-3 ovarian
OVCAR-4 ovarian = system: OVCAR-4 ovarian
OVCAR-5 ovarian = system: OVCAR-5 ovarian
OVCAR-8 ovarian = system: OVCAR-8 ovarian
PC-3 prostate = system: PC-3 prostate
RPMI-8226 leukemia = system: RPMI-8226 leukemia
RXF 393 renal = system: RXF 393 renal
SF-268 CNS = system: SF-268 CNS
SF-295 CNS = system: SF-295 CNS
SF-539 CNS = system: SF-539 CNS
SK-MEL-2 melanoma = system: SK-MEL-2 melanoma
SK-MEL-28 melanoma = system: SK-MEL-28 melanoma
SK-MEL-5 melanoma = system: SK-MEL-5 melanoma
SK-OV-3 ovarian = system: SK-OV-3 ovarian
SN12C renal = system: SN12C renal
SNB-19 CNS = system: SNB-19 CNS
SNB-75 CNS = system: SNB-75 CNS
SR leukemia = system: SR leukemia
SW-620 colon = system: SW-620 colon
T-47D breast = system: T-47D breast
TK-10 renal = system: TK-10 renal
U251 CNS = system: U251 CNS
UACC-257 melanoma = system: UACC-257 melanoma
UACC-62 melanoma = system: UACC-62 melanoma
UO-31 renal = system: UO-31 renal

`CN1CCN(c2ccc(Nc3nc(NCCNC(=O)c4ccc(C(F)(F)F)cc4)c4sccc4n3)cc2)CC1` gave a GI50 (786-0 renal) of 3.24 µM, a TGI (786-0 renal) of 13.1 µM and a GI50 (A498 renal) of 17.1 µM. For the same compound, the TGI (A498 renal) was 31 µM, the GI50 (A549 NSCLC) was 11.7 µM and the TGI (A549 NSCLC) was 30.8 µM. It also gave a GI50 (ACHN renal) of 13.4 µM, a TGI (ACHN renal) of 27.9 µM and a GI50 (BT-549 breast) of 12.3 µM. It also gave a TGI (BT-549 breast) of 25.1 µM, a GI50 (CAKI-1 renal) of 9.24 µM and a TGI (CAKI-1 renal) of 21.7 µM. It also gave a GI50 (COLO 205 colon) of 7.4 µM, a TGI (COLO 205 colon) of 22.6 µM and a GI50 (DU-145 prostate) of 14.2 µM. For the same compound, the TGI (DU-145 prostate) was 27.9 µM, the GI50 (EKVX NSCLC) was 13.9 µM and the TGI (EKVX NSCLC) was 29.2 µM. The GI50 (HCC-2998 colon) was 4.55 µM, the TGI (HCC-2998 colon) was 15.5 µM and the GI50 (HCT-116 colon) was 4.25 µM. For the same compound, the TGI (HCT-116 colon) was 15.2 µM, the GI50 (HCT-15 colon) was 3.33 µM and the TGI (HCT-15 colon) was 13.9 µM. It also gave a GI50 (HL-60(TB) leukemia) of 3.49 µM, a TGI (HL-60(TB) leukemia) of 15.8 µM and a GI50 (HOP-62 NSCLC) of 15.1 µM. For the same compound, the TGI (HOP-62 NSCLC) was 30.7 µM, the GI50 (HOP-92 NSCLC) was 4.66 µM and the TGI (HOP-92 NSCLC) was 18.9 µM. The GI50 (HS 578T breast) was 4.19 µM, the TGI (HS 578T breast) was 23.2 µM and the GI50 (HT29 colon) was 3.53 µM. It also gave a TGI (HT29 colon) of 12.6 µM, a GI50 (IGROV1 ovarian) of 12.9 µM and a TGI (IGROV1 ovarian) of 26 µM. It also gave a GI50 (K-562 leukemia) of 2240 nM, a TGI (K-562 leukemia) of 8.8 µM and a GI50 (KM12 colon) of 14 µM. For the same compound, the TGI (KM12 colon) was 30.8 µM, the GI50 (LOX IMVI melanoma) was 2660 nM and the TGI (LOX IMVI melanoma) was 8.84 µM. For the same compound, the GI50 (M14 melanoma) was 1880 nM, the TGI (M14 melanoma) was 3.63 µM and the GI50 (MALME-3M melanoma) was 1770 nM. The TGI (MALME-3M melanoma) was 3.16 µM, the GI50 (MCF7 breast) was 4.06 µM and the TGI (MCF7 breast) was 15.7 µM. The GI50 (MDA-MB-231 breast) was 3.72 µM, the TGI (MDA-MB-231 breast) was 14.4 µM and the GI50 (MDA-MB-435) was 3.5 µM. It also gave a TGI (MDA-MB-435) of 11 µM, a GI50 (MDA-MB-468 breast) of 2260 nM and a TGI (MDA-MB-468 breast) of 9.44 µM. It also gave a GI50 (MOLT-4 leukemia) of 3.64 µM, a TGI (MOLT-4 leukemia) of 16.5 µM and a GI50 (NCI-H226 lung) of 14 µM. The TGI (NCI-H226 lung) was 29.8 µM, the GI50 (NCI-H23 lung) was 14.6 µM and the TGI (NCI-H23 lung) was 29.6 µM. For the same compound, the GI50 (NCI-H460 lung) was 13.3 µM, the TGI (NCI-H460 lung) was 28.7 µM and the GI50 (NCI-H522 lung) was 4.21 µM. It also gave a TGI (NCI-H522 lung) of 16.7 µM, a GI50 (NCI/ADR-RES ovarian) of 16.1 µM and a TGI (NCI/ADR-RES ovarian) of 39.5 µM. It also gave a GI50 (OVCAR-3 ovarian) of 14.4 µM, a TGI (OVCAR-3 ovarian) of 32 µM and a GI50 (OVCAR-4 ovarian) of 13.6 µM. For the same compound, the TGI (OVCAR-4 ovarian) was 48.1 µM, the GI50 (OVCAR-5 ovarian) was 15.1 µM and the TGI (OVCAR-5 ovarian) was 30.5 µM. The GI50 (OVCAR-8 ovarian) was 10.8 µM, the TGI (OVCAR-8 ovarian) was 28 µM and the GI50 (PC-3 prostate) was 10.4 µM. It also gave a TGI (PC-3 prostate) of 26.9 µM, a GI50 (RPMI-8226 leukemia) of 1880 nM and a TGI (RPMI-8226 leukemia) of 4.54 µM. The GI50 (RXF 393 renal) was 2670 nM, the TGI (RXF 393 renal) was 10.3 µM and the GI50 (SF-268 CNS) was 11.1 µM. It also gave a TGI (SF-268 CNS) of 31.4 µM, a GI50 (SF-295 CNS) of 3.52 µM and a TGI (SF-295 CNS) of 13.6 µM. For the same compound, the GI50 (SF-539 CNS) was 2120 nM, the TGI (SF-539 CNS) was 4.6 µM and the GI50 (SK-MEL-2 melanoma) was 15.7 µM. It also gave a TGI (SK-MEL-2 melanoma) of 29.7 µM, a GI50 (SK-MEL-28 melanoma) of 2130 nM and a TGI (SK-MEL-28 melanoma) of 3.99 µM. For the same compound, the GI50 (SK-MEL-5 melanoma) was 2300 nM, the TGI (SK-MEL-5 melanoma) was 5.99 µM and the GI50 (SK-OV-3 ovarian) was 17.3 µM. It also gave a TGI (SK-OV-3 ovarian) of 33.4 µM, a GI50 (SN12C renal) of 12.9 µM and a TGI (SN12C renal) of 25.7 µM. For the same compound, the GI50 (SNB-19 CNS) was 14.2 µM, the TGI (SNB-19 CNS) was 27.5 µM and the GI50 (SNB-75 CNS) was 6.55 µM. The TGI (SNB-75 CNS) was 20.7 µM, the GI50 (SR leukemia) was 1900 nM and the TGI (SR leukemia) was 5.21 µM. The GI50 (SW-620 colon) was 12.7 µM, the TGI (SW-620 colon) was 26.4 µM and the GI50 (T-47D breast) was 10.8 µM. For the same compound, the TGI (T-47D breast) was 31.1 µM, the GI50 (TK-10 renal) was 16.6 µM and the TGI (TK-10 renal) was 30.8 µM. The GI50 (U251 CNS) was 3.54 µM, the TGI (U251 CNS) was 13.8 µM and the GI50 (UACC-257 melanoma) was 1750 nM. The TGI (UACC-257 melanoma) was 3.39 µM, the GI50 (UACC-62 melanoma) was 2010 nM and the TGI (UACC-62 melanoma) was 4.79 µM. It also gave a GI50 (UO-31 renal) of 11.8 µM and a TGI (UO-31 renal) of 24.1 µM.
